{"source": "patent US10918644B2", "about": "“Chemotherapeutic drug composition” (YEDITEPE UNIVERSITESI, priority 2017, dated 2021)", "key": {"Caki-1 cells [1]": {"test_system": "Caki-1 cells", "assay": "Annexin-V cell death detection assay, Caki-1 cells", "format": "cell-based", "settings": "1 μM Everolimus and 10 μM ABT-737, or ABT-737 monotherapy; 24, 48 and 72 hours"}, "[2]": {"test_system": "Everolimus-resistant RenCa (erRenCa) cells", "assay": "In vivo tumor model with erRenCa cells injected into the dorsal area", "design": "species or system Balb/c mice", "settings": "for animals with tumor formation: 2 mg/kg Everolimus and/or 75 mg/kg ABT-737 intraperitoneally every other day from day 4, 11 injections, eight animals per group", "description": "Everolimus stock solution was prepared by dissolving 10 mg lyophilized Everolimus in 1.043 ml DMSO (Dimethyl sulfoxide) (9.6 mg/ml) and ABT-737 stock solution was prepared by dissolving 10 mg ABT-737 in 1.229 ml DMSO (8.14 mg/ml). Stock concentration of both drugs was 10 mM. For in vitro conditions, dilutions were made in cell culture medium at concentrations ranging from 1-5 μM from Everolimus stock concentration. For in vivo conditions, the drug Everolimus that will be injected to animals was prepared by diluting the stock concentration in PBS (Phosphate-buffered saline) to a concentration of 2 mg/kg. For in vitro conditions, dilutions were made in cell culture medium at concentrations ranging from 1-10 μM from ABT-737 stock concentration. For in vivo conditions, the drug ABT-737 that will be injected to animals was prepared by diluting the stock concentration in PBS (Phosphate-buffered saline) to a concentration of 75 mg/kg. Prior to injection, the volume of the injected drug is adjusted to 200 μl by addition of PBS (Phosphate-buffered saline). The drugs were injected into the animals separately one minute apart without being mixed.\n(§1) The process of tumor development was monitored.\nThese erRenCa kidney cancer cells were used as a cancer cell line to form a kidney cancer tumor model in animals. For this purpose, cells were subcutaneously injected into the dorsal area of Balb/c mice. […] The experiment was terminated at the end of 11 injections. […] In order to develop resistance to Everolimus, erRenCa cells inactivated their mTOR pathway and began to use the Bcl-2 pathway for their survival. Therefore, cancer cells could only undergo cell death after blocking the anti-apoptotic Bcl-2 survival pathway with the drug ABT-737."}, "HEK293 cells": {"test_system": "HEK293 cells", "assay": "WST-1 cell viability assay on healthy kidney cells (toxicity)", "format": "cell-based, human", "description": "(§2) The WST-1 assay was performed to determine cell viability. The working principle of this assay is based on the conversion of the stable tetrazolium salt WST-1 into soluble formazan by viable cells. During conversion of WST-1 to formazan, a color change that is measurable at 450 and 630 nm wavelengths occurs in the cell medium. In other words, the amount of formazan dye is proportional to the number of metabolically active (viable) cells. The color change was evaluated by measuring the absorbance in the ELISA device and the obtained values were analyzed using the Graph Pad Prism 7 database.\nHuman embryonic kidney (HEK293) cells were used as a cell model to test whether Everolimus and ABT-737 had any toxic effects on healthy kidney cells. HEK293 cells were treated with the drug composition (1 μM for Everolimus and 5 μM for ABT-737) for 3 days and the toxicity response was determined by measuring cell viability by WST-1 assay for 3 days."}, "[3]": {"settings": "mouse, in vivo", "quoted_text": "At the end of the experiment, the organs including thymus, heart, stomach, intestine, kidney, spleen, testis, lung, liver, and brain were taken from the animals in each group and were sent for pathological examination. […] At the same time, the metastatic focus in these tissues was also examined."}, "Caki-1 cells [4]": {"test_system": "Caki-1 cells", "assay": "WST-1 cell viability assay, Caki-1 cells", "format": "cell-based", "description": "as §2\n(§3) To determine the toxic effect of Everolimus and ABT-737 on cell viability, primary A-498 and metastatic Caki-1 RCC cell lines that are resistant to drug Everolimus were used in this study and the toxic effect was determined by using the WST-1 method.\n(§4) Everolimus and ABT-737 drugs were administered to A-498 and Caki-1 cells, which were seeded in 96-well culture plates, for three days to determine the appropriate dose for the combination. The effect of the drugs prepared at three different concentrations (1, 5, or 10 μM) on cell viability was determined using the WST-1 method. […] The amount of drug composition for Caki-1 (10,000 cells/well) metastatic cells was determined as 1 μM Everolimus and 10 μM ABT-737. […]"}, "[5]": {"test_system": "mTOR pathway in Caki-1 cells", "assay": "Western Blotting of mTOR pathway proteins, Caki-1 cells", "format": "cell-based", "settings": "1 μM Everolimus alone or with 10 μM ABT-737, 24 hours", "description": "(§5) A-498 and Caki-1 RCC cells were used to investigate the molecular effect of the Everolimus and ABT-737 drug composition on the mTOR pathway. A-498 cells and Caki-1 cells seeded in 6-well plates were treated for 24 hours with 1 μM Everolimus and 5 μM ABT-737 and 1 μM Everolimus and 10 μM ABT-737, respectively. At the end of 24 hours, proteins were isolated from the cells. These proteins were then used to determine the expression of proteins that play a key role in the mTOR pathway by performing the Western Blotting technique."}, "[6]": {"test_system": "Everolimus-resistant RenCa (erRenCa) cells", "assay": "WST-1 cell viability assay, Everolimus-resistant RenCa cells", "format": "cell-based, murine", "settings": "Everolimus 1, 5 and 10 μM, at the end of three days", "description": "as §2\nRenCa cells were made resistant to Everolimus for the use in in vivo experiments. In this regard, RenCa cells were seeded in 96-well culture plates. After 24 hours, the cells were treated with 1 μM Everolimus for 72 hours. At the end of 72 hours, the cells were washed with PBS (Phosphate-buffered saline) and treated with 10 μM Everolimus for an additional 72 hours. Cells that developed resistance to Everolimus were transferred to 6-well culture plates and were grown in an Everolimus-free medium. Cells reaching a density of 90% were transferred to T-75 culture plates and were grown for 2 months in a medium containing 1 μM Everolimus.\nas §1"}, "A-498 cells": {"test_system": "A-498 cells", "assay": "WST-1 cell viability assay, A-498 cells", "format": "cell-based", "settings": "Everolimus monotherapy, 1, 5 or 10 μM, three days", "description": "as §2, §3, §4"}, "[7]": {"settings": "cited from earlier work; for prolonged progression-free survival: treatment of metastatic RCC"}, "[8]": {"test_system": "mTOR pathway in A-498 cells", "assay": "Western Blotting of mTOR pathway proteins, A-498 cells", "format": "cell-based", "settings": "1 μM Everolimus alone or with 5 μM ABT-737, 24 hours", "description": "as §5"}, "RenCa cells": {"test_system": "RenCa cells", "assay": "WST-1 cell viability assay, RenCa cells", "format": "cell-based, murine", "settings": "Everolimus 1, 5 and 10 μM, after 48 hours of treatment", "description": "as §2, §1"}, "[9]": {"settings": "ABT-737 group, 75 mg/kg intraperitoneally every other day"}, "[10]": {"settings": "Everolimus group, 2 mg/kg intraperitoneally every other day, 2 mg/kg"}}, "note": "Several values for one entry are separate records, joined by “and”; a condition that tells them apart may be missing. Equal entries are not always repeated. Entries after “also recorded” stand apart in the source; their conditions may differ.", "data": [{"smiles": "CN(C)CC[C@H](CSc1ccccc1)Nc1ccc(S(=O)(=O)NC(=O)c2ccc(N3CCN(Cc4ccccc4-c4ccc(Cl)cc4)CC3)cc2)cc1[N+](=O)[O-]", "note": "[ABT-737]", "values": [{"measurement": "apoptosis mediated cell death (Annexin-V)", "setting": "Caki-1 cells [1]", "result": "more significant increase in the cell death compared to the combination"}, {"measurement": "animals with tumor formation", "setting": "[2]", "result": "three of the eight"}, {"measurement": "Grade (WHO/ISUP, per animal H1-H8)", "setting": "[2]; [9]", "result": 4}, {"measurement": "Necrosis (per animal H1-H8)", "setting": "[2]; [9]", "result": "No"}, {"measurement": "Tumor (pathological examination, per animal H1-H8)", "setting": "[2]; ABT-737 group, 75 mg/kg intraperitoneally every other day, 75 mg/kg", "result": "No tumor; also recorded: Renal cell carcinoma"}, {"measurement": "decrease in the cell viability of healthy kidney cells", "setting": "HEK293 cells; 5 μM ABT-737, third day of the treatment", "result": "did not cause any decrease"}, {"measurement": "toxic effects on the animals (pathological examination of the tissues)", "setting": "[3]", "result": "did not show any toxic effects"}, {"measurement": "decrease in cell viability", "setting": "Caki-1 cells [4]; ABT-737 monotherapy, after 72 hours", "result": 80, "unit": "%"}]}, {"smiles": "CO[C@H]1C[C@@H]2CC[C@@H](C)[C@@](O)(O2)C(=O)C(=O)N2CCCC[C@H]2C(=O)O[C@H]([C@H](C)C[C@@H]2CC[C@@H](OCCO)[C@H](OC)C2)CC(=O)[C@H](C)/C=C(\\C)[C@@H](O)[C@@H](OC)C(=O)[C@H](C)C[C@H](C)/C=C/C=C/C=C/1C", "note": "[Everolimus]", "values": [{"measurement": "S6 protein phosphorylated at serine 240/244 (S6-S240/244P)", "setting": "[5]", "result": "decrease"}, {"measurement": "basal p70S6K protein expression", "setting": "[5]; vs control cells", "result": "decreased"}, {"measurement": "p70S6K protein phosphorylated at threonine 389 (p70S6K-T389P)", "setting": "[5]; vs control cells", "result": "decrease"}, {"measurement": "autophosphorylation of the mTOR kinase at serine 2448 (mTOR-S2448P)", "setting": "[5]; vs untreated control cells", "result": "diminished"}, {"measurement": "change in cell viability", "setting": "[6]", "result": "did not cause any change"}, {"measurement": "response of cell viability to Everolimus (toxicology results)", "setting": "A-498 cells", "result": "resistant"}, {"measurement": "increase of survival", "setting": "[7]; advanced stage RCC, Phase III clinical trials, after failure of VEGF therapy", "result": "about 4.9 months"}, {"measurement": "prolonged progression-free survival", "setting": "[7]", "result": "up to 4.9 months"}, {"measurement": "animals with tumor formation", "setting": "[2]", "result": "four of the eight"}, {"measurement": "Grade (WHO/ISUP, per animal H1-H8)", "setting": "[2]; [10]", "result": "4 (3×) and 2"}, {"measurement": "Necrosis (per animal H1-H8)", "setting": "[2]; [10]", "result": "No (7×) and Yes"}, {"measurement": "Tumor (pathological examination, per animal H1-H8)", "setting": "[2]; [10]", "result": "Renal cell carcinoma; also recorded: No tumor"}, {"measurement": "cytotoxic effect on healthy kidney cells", "setting": "HEK293 cells; 1 μM Everolimus, 24 and 48 hours", "result": "did not show any cytotoxic effect"}, {"measurement": "decrease in the cell viability compared to untreated control cells", "setting": "HEK293 cells; 1 μM Everolimus, 72 hour-treatment", "result": 50, "unit": "%"}, {"measurement": "S6 protein phosphorylated at serine 240/244 (S6-S240/244P)", "setting": "[8]", "result": "decrease"}, {"measurement": "basal p70S6K protein expression", "setting": "[8]; vs control cells", "result": "decreased"}, {"measurement": "p70S6K protein phosphorylated at threonine 389 (p70S6K-T389P)", "setting": "[8]; vs control cells", "result": "decrease"}, {"measurement": "autophosphorylation of the mTOR kinase at serine 2448 (mTOR-S2448P)", "setting": "[8]; vs untreated control cells", "result": "diminished"}, {"measurement": "effect on cell viability", "setting": "RenCa cells", "result": "caused toxic effects"}, {"measurement": "toxic effects on the animals (pathological examination of the tissues)", "setting": "[3]", "result": "did not show any toxic effects"}, {"measurement": "response of cell viability to Everolimus (toxicology results)", "setting": "Caki-1 cells [4]; Everolimus monotherapy, 1, 5 or 10 μM, three days", "result": "resistant"}]}, {"smiles": "CNC(=O)c1cc(Oc2ccc(NC(=O)Nc3ccc(Cl)c(C(F)(F)F)c3)cc2)ccn1", "note": "[Sorafenib]", "values": [{"measurement": "prolonged progression-free survival", "setting": "[7]", "result": "up to 5.9 months"}]}, {"smiles": "CO[C@H]1C[C@@H]2CC[C@@H](C)[C@@](O)(O2)C(=O)C(=O)N2CCCC[C@H]2C(=O)O[C@H]([C@H](C)C[C@@H]2CC[C@@H](OC(=O)C(C)(CO)CO)[C@H](OC)C2)CC(=O)[C@H](C)/C=C(\\C)[C@@H](O)[C@@H](OC)C(=O)[C@H](C)C[C@H](C)/C=C/C=C/C=C/1C", "note": "[Temsirolimus]", "values": [{"measurement": "prolonged progression-free survival", "setting": "[7]", "result": "up to 3.8 months"}]}]}
